Data taken from patent publication US6635629B2, “3-nitrogen-6,7-dioxygen steroids and uses related thereto” (Inflazyme Pharmaceuticals Ltd., priority 2000, dated 2003).

Key:
[1] = system: Jurkat clone E6.1 cells; test: Antigen-induced (anti-CD3 mAb) calcium flux in Jurkat clone E6.1 cells; type: cell-based; conditions: for Calcium (% inhibition at 20 μM): anti-CD3 mAb 4 μg/mL, Fura 2AM
Description: Elevation of cytoplasmic calcium concentration is a common and crucial event which follows the activation of many types of cell surface receptors. Increases in intracellular calcium that occur following agonist activation of inositol lipid hydrolysis are the results of calcium release from the endoplasmic reticulum and the influx of calcium through the plasma membrane. Increases in cytosolic calcium concentration are involved in many important cellular responses in the inflammatory process including adhesion, motility, gene expression, proliferation, and degranulation. Changes in intracellular calcium centrations can affect both short and long term cellular responses. An assay method to evaluate a test compound's impact on calcium flux is provided as follows.
The resulting supernatants are discarded and each pellet is washed in 10 mL HBSS. Cell suspensions are accumulated and centrifuged for 5 minutes at 900 RPM to form a cell pellet. The resulting supernatant is discarded and the pellet is resuspended in HBSS at 1×10^7 cells/mL. The cell suspension is transferred to a 20 mm petri dish and incubated at 37° C., 5% CO2 for 20 minutes.
One volume of Fura 2AM is mixed to one volume of detergent Pluronic F127. Cells are labeled with 4 μL of probe solution to each mL of cell suspension. The petri dish is wrapped in aluminum foil to protect from light and placed on a plate shaker for 30 minutes at room temperature.
The following steps are done in the laminar flow hood with the fluorescent lights turned off. The petri dish is removed from the shaker and the labeled cell suspension is transferred to a 15 mL conical tube and washed twice with HBSS as above. The cell pellet is resuspended in 12 mL HBSS and left wrapped in foil for 30 minutes at room temperature. The labeled cell suspension is aliquoted (100 μL/well) into a Dynex 96 well white opaque tissue culture plate. […] Selected compounds were tested for dose related activity. Test samples and activator (anti—CD3 mAb at final concentration of 4 μg/mL, PharMingen) are added manually (50 μL), such that the minimum time to acquire the first data point after stimulation is approximately 30 seconds. The calcium influx response to anti-CD3 mAb is measured as an “end point” assay. The entire plate is read in 100 seconds using a kinetic of 1 second per well.
The plate is read before the addition of anti-CD3 to monitor non-specific effect of samples/drugs. Fluorescence emission is measured at 510 nm with excitation alternating between 340 and 380 every second using an excitation/emission filter pair. Data from these dual wavelengths are represented as a ratio of 2 excitations wavelengths. This ratio is independent of intracellular dye and cell concentrations, enabling real comparison between experiments.

[2] = system: rat mast cell line (RBL-2H3); test: Antigen-induced release of hexosaminidase from a rat mast cell line (RBL-2H3); type: cell-based; conditions: inhibition of DNP-HSA antigen-induced hexosaminidase release; tested at 0.3, 3, 10 and 30 μM; read-out: Hex IC50
Protocol: The anti-allergic effects of a compound of the present invention was evaluated by measuring its effect on antigen-induced secretion of hexosaminidase from a passively sensitized rat mast cell line. The ability of a test compound to inhibit the release of mast cell granule contents, e.g., histamine and hexosaminidase, is indicative of the anti-allergy and/or anti-asthma activity of the compound. Hexosaminidase is released from the mast cell granule along with histamine and other mediators during antigen challenge. The test is performed as follows.
RBL-2H3 cells are grown in culture and passively sensitized for 1 hour at 37° C. to dinitrophenol (DNP) using anti-human-DNP (IgE). Cells are incubated with test compound for 30 minutes at 37° C. and stimulated with 0.5 μg/ml DNP-HSA (antigen) for 30 minutes. Aliquots of the supernatant are removed and used to measure the amount of hexosaminidase released during challenge with the antigen. […] The effect of each test compound is determined as a percentage of the antigen-induced response (minus background release) obtained in the presence of DMSO alone. These values are used to determine the degrees of inhibition of antigen-induced hexosaminidase release from the cells.

[3] = system: sensitized Brown Norway rats; test: Ovalbumin-induced accumulation of inflammatory cells in lung lavage fluid of sensitized Brown Norway rats; type: in vivo, rat; conditions: 1 mg/kg/day for 4 days, p.o., corn oil vehicle; relative to control animals
Protocol: The ability of a compound to inhibit the allergen-induced accumulation of inflammatory cells such as eosinophils and neutrophils in the lavage fluid obtained from sensitized animals is indicative of that compound's anti-asthma activity. […] The test is conducted as follows.
Male Brown Norway rats are sensitized to ovalbumin by single intraperitoneal injection of 1 mg ovalbumin adsorbed to 100 mg A(OH)3 (alum) in 1 ml sterile saline (saline control rats receive only sterile saline) on day 1, and allowed to sensitize until day 21. […] Rats are challenged with 0.5% ovalbumin in saline generated using a Devillbis nebulizer for 60 min on day 21.
Forty-eight hrs after challenge, animals are sacrificed with an overdose of intraperitoneally-delivered sodium pentobarbitol and the lungs are lavaged with cold 2×7 ml phosphate buffered saline. The recovered lavage fluid is placed on ice. The bronchoalveolar lavage fluid is centrifuged and the supernatant removed. The pellet is resuspended in phosphate buffered saline at 4° C. Cytospins are prepared and stained for differentiation and enumeration of cell types.
Test compound was administered in 300 μl corn oil (Tables 7 and 8) or water (Table 9), which were used as vehicles. Control animals received 300 μl corn oil or water alone, i.e., no drug. […] A negative value in Table 7, 8, or 9 indicates an exacerbation of the effect over the control animal.

SMILES	Calcium (% inhibition at 20 μM) [1]	IC50 [2]	other results
CCC1(C)CCC2=C1CCC1C2C(O)C(O)C2CC(Nc3ccccc3)CCC21C.Cl (mixture of isomers) [Compound 144]	13.0%	6.9 µM	
CCC1(C)CCC2=C1CCC1C2C(O)C(O)C2CC(Nc3cccc(C(F)(F)F)c3)CCC21C.Cl (mixture of isomers) [Compound 145]	−0.2%	22 µM	
C=C1CCC2C3C(CC[C@]12C)[C@@]1(C)CCC(N)CC1[C@@H](O)[C@@H]3O (stereo partly shown) [Compound 54]	19.8%		% inhibition of eosinophils [3]: −82%; % inhibition of lymphocytes [3]: −7%; % inhibition of neutrophils [3]: −19%
C=C1CCC2C3C(CC[C@]12C)[C@@]1(C)CCC(N)CC1[C@@H](OC)[C@@H]3OC (stereo partly shown) [Compound 80]	7.4%	10.7 µM	
C=C1CCC2C3C(O)C(O)C4CC(NCc5ccccc5F)CCC4(C)C3CCC12C.CC(=O)O (stereo not shown) [Compound 101]	16.3%		
C=C1CCC2C3C(O)C(O)C4CC(NCc5cccc(C(F)(F)F)c5)CCC4(C)C3CCC12C.CC(=O)O (stereo not shown) [Compound 102]	9.5%	10 µM	
C=C1CCC2C3C(O)C(O)C4CC(NCc5ccccc5OC)CCC4(C)C3CCC12C.CC(=O)O (stereo not shown) [Compound 103]	23.7%	11.1 µM	
C=C1CCC2C3C(O)C(O)C4CC(NCc5ccc(OC(F)(F)F)cc5)CCC4(C)C3CCC12C.CC(=O)O (stereo not shown) [Compound 104]	30.3%	9.5 µM	
C=C1CCC2C3C(O)C(O)C4CC(NCc5cccc(Oc6ccccc6)c5)CCC4(C)C3CCC12C.CC(=O)O (stereo not shown) [Compound 105]	10.2%	22.5 µM	
C=C1CCC2C3C(O)C(O)C4CC(NCc5cccc([N+](=O)[O-])c5)CCC4(C)C3CCC12C (stereo not shown) [Compound 106]	8.1%	8.8 µM	
CC=C1CCC2C3C(O)C(O)C4CC(N5CCOCC5)CCC4(C)C3CCC12C.Cl (stereo not shown) [Compound 111]	53.1%	9.3 µM	
C/C=C1/CCC2C3C(CC[C@]12C)[C@@]1(C)CCC(NC)CC1[C@@H](O)[C@@H]3O (stereo partly shown) [Compound 113]	45.0%	9.8 µM	
CC=C1CCC2C3C(O)C(O)C4CC(NCCC)CCC4(C)C3CCC12C.Cl (stereo not shown) [Compound 114]	37.9%		
CC=C1CCC2C3C(O)C(O)C4CC(NCCCCC)CCC4(C)C3CCC12C.Cl (stereo not shown) [Compound 115]	40.0%	11.1 µM	
CC=C1CCC2C3C(O)C(O)C4CC(NC5CCCC5)CCC4(C)C3CCC12C (stereo not shown) [Compound 116]		9.6 µM	
CC(=O)O.CC=C1CCC2C3C(O)C(O)C4CC(NC5CCCCC5)CCC4(C)C3CCC12C (stereo not shown) [Compound 117]	42.2%	6.6 µM	

SMILES	Calcium (% inhibition at 20 μM) [1]	IC50 [2]	other results
CC(=O)O.CC=C1CCC2C3C(O)C(O)C4CC(N5CCCC5)CCC4(C)C3CCC12C (stereo not shown) [Compound 118]	41.8%	11 µM	
CC=C1CCC2C3C(O)C(O)C4CC(NCCNCCC)CCC4(C)C3CCC12C.Cl.Cl (stereo not shown) [Compound 119]	54.5%		IC50 ([1]; dose response activity examined): ≤ 10 µM
CC=C1CCC2C3C(O)C(O)C4CC(NCCN(C)C)CCC4(C)C3CCC12C.Cl.Cl (stereo not shown) [Compound 120]	44.0%	9.1 µM	
CC(=O)O.CC=C1CCC2C3C(O)C(O)C4CC(N5CCNCC5)CCC4(C)C3CCC12C (stereo not shown) [Compound 121]	42.4%	14.4 µM	
CC=C1CCC2C3C(O)C(O)C4CC(NCCO)CCC4(C)C3CCC12C.Cl (stereo not shown) [Compound 122]	31.4%	12.3 µM	
CC=C1CCC2C3C(O)C(O)C4CC(NCCCCCO)CCC4(C)C3CCC12C.Cl (stereo not shown) [Compound 123]	12.8%	16.7 µM	
CC=C1CCC2C3C(O)C(O)C4CC(NCCNCCO)CCC4(C)C3CCC12C.Cl.Cl (stereo not shown) [Compound 124]	21.0%		% inhibition of eosinophils [3]: −55%; % inhibition of lymphocytes [3]: −26%; % inhibition of neutrophils [3]: −76%
CC=C1CCC2C3C(O)C(O)C4CC(Nc5cccc(C)c5)CCC4(C)C3CCC12C.Cl (stereo not shown) [Compound 125]	5.7%	39.4 µM	
CC=C1CCC2C3C(O)C(O)C4CC(Nc5ccc(O)cc5)CCC4(C)C3CCC12C.Cl (stereo not shown) [Compound 126]	45.0%	9.7 µM	
CC=C1CCC2C3C(O)C(O)C4CC(Nc5ccc(S(N)(=O)=O)cc5)CCC4(C)C3CCC12C.Cl (stereo not shown) [Compound 127]	29.4%	10.1 µM	
C=C1CCC2C3C(CC[C@]12C)[C@@]1(C)CC[C@@H](NC(C)=O)CC1[C@@H](O)[C@@H]3O (stereo partly shown) [Compound 131]			% inhibition of eosinophils [3]: 16%; % inhibition of lymphocytes [3]: 21%; % inhibition of neutrophils [3]: 57%
C=C1CCC2C3C(CC[C@]12C)[C@@]1(C)CC[C@@H](NC(=O)c2ccccc2)CC1[C@@H](O)[C@@H]3O (stereo partly shown) [Compound 132]	19.6%	10 µM	
C=C1CCC2C3C(CC[C@]12C)[C@@]1(C)CC[C@@H](NS(=O)(=O)C(C)C)CC1[C@@H](O)[C@@H]3O (stereo partly shown) [Compound 133]			% inhibition of eosinophils [3]: −43%; % inhibition of lymphocytes [3]: 28%; % inhibition of neutrophils [3]: 40%
C=C1CCC2C3C(CC[C@]12C)[C@@]1(C)CC[C@@H](NS(=O)(=O)c2ccccc2)CC1[C@@H](O)[C@@H]3O (stereo partly shown) [Compound 134]	25.1%	16.7 µM	
Cc1cccc(CNC2CCC3(C)C(C2)C(O)C(O)C2C4=C(CCC23)C(C)(C)CC4)c1.Cl (stereo not shown) [Compound 140]	21.5%	10.2 µM	
COC1C(OC)C2CC(N)CCC2(C)C2CCC3=C(CCC3(C)C)C12.Cl (stereo not shown) [Compound 148]	6.6%	29.2 µM	
